We go through 6 molecules from patent publication US4456594A, “N-Carboxyalkylproline-containing tripeptides” (SmithKline Beckman Corporation, priority 1982, dated 1984).

Molecules are shown by their SMILES. Where a name gives a salt, the structure may show the parent alone.

For one assay, the system named is anesthetized dogs. Kind of assay: renal vasodilator activity test in anesthetized dogs (infusion). The class given is in vivo, dog. Particulars: for renal vasodilator activity: primary test period of the renal anesthetized dog screening protocol. The text has this:
Representative specific results are included in the examples.

In assay [1] the test system is spontaneously hypertensive rats. Kind of assay: spontaneously hypertensive rat (SHR) diuretic naturetic assay. Particulars: 25 and 50 mg/kg i.p. The class given is in vivo. As to the method:
In this test, male, Okamato-Aoki strain, spontaneously hypertensive rats, aged 16-19 weeks, are fasted, then, the following afternoon, the first dose of test compound is administered, along with a 25 ml/kg p.o. load of normal saline. The animals are, then, placed in metabolism cages and urine collected for three hours for analysis. Indirect systolic blood pressure and heart rate are measured by a tail-cuff. An identical second dose of test compound is administered. After two hours, blood pressure and heart rate are again tested. The test compound is usually administered p.o. or i.p. in saline with 0.02% ascorbic acid.

Assay [2] has as its system angiotensin coverting enzyme. Kind of assay: angiotensin converting enzyme inhibiting activity. It counts as in vivo. Conditions: at 10 times its renally effective dose.
In assay [3] the test system is dopamine-sensitive adenylate cyclase system. Kind of assay: dopamine-sensitive adenylate cyclase system in vitro. It counts as biochemical.
In the next assay the test system is toad bladder. Kind of assay: toad bladder anti-ADH assay.
Assay [4] can be described thus: bradycardic effect (heart rate), test not stated. Conditions: in vivo.
Setting [5] is: two anesthetized dogs, 3, 30 and 300 μg/kg/min.

Take `O=C(O)CN1CCC[C@H]1C(=O)N[C@@H](Cc1ccccc1)C(=O)N1CCC[C@H]1C(=O)O` [Example 2 sulfate, N-carboxymethyl-L-prolyl-L-phenylalanyl-L-proline]: the “renal blood flow (qualitative)” value in the assay with anesthetized dogs (30 and 300 μg/kg/min) was “increased renal blood flow”.

In the case of `O=C(O)CN1CCC[C@H]1C(=O)NCCC(=O)N1CCC[C@H]1C(=O)O.O=S(=O)(O)O` [Example 3, N-carboxymethyl-L-prolyl-β-alanyl-L-proline sulfate], in the assay on anesthetized dogs (setting [5]), the “renal blood flow (qualitative)” value is on record as “increased renal blood flow” and the “renal vascular resistance (qualitative)” value is reported as “decreased renal vascular resistance”. In addition, the “Na+, K+ or urine excretion (qualitative)” value in assay [1] is listed as “significant increase”. For the same molecule, the “angiotensin converting enzyme inhibiting activity” value in assay [2] is “did not have angiotensin coverting enzyme inhibiting activity”. Besides, the “stimulation or antagonism of dopamine-sensitive adenylate cyclase” value in assay [3] is “did not stimulate or antagonize”. For the same molecule, the anti-ADH activity entry in the assay with toad bladder is “nor was it active”. For the same molecule, the bradycardic effect result in assay [4] is recorded as “weak bradycardic effect”.

With `CC(C(=O)O)N1CCC[C@H]1C(=O)NCCC(=O)N1CCC[C@H]1C(=O)O` (stereo partly drawn) [N-(1-carboxyethyl)-L-prolyl-β-alanyl-L-proline], the renal vasodilator activity result with anesthetized dogs was “inactive”.

For `NCCCC[C@H](NC(=O)[C@@H]1CCCN1CC(=O)O)C(=O)N1CCC[C@H]1C(=O)O` [N-carboxymethyl-L-prolyl-L-lysyl-L-proline], the renal vasodilator activity entry in the assay on anesthetized dogs is “inactive”.

Regarding `O=C(O)CN1CCC[C@H]1C(=O)NCC(=O)N1CCC[C@H]1C(=O)O` [N-carboxymethyl-prolyl-glycyl-L-proline], the renal vasodilator activity entry with anesthetized dogs is “inactive”.

On to `NCCc1ccc(O)c(O)c1` [dopamine], for which the RVR-ED15 with anesthetized dogs (secondary test in three dogs, i.v.) turned out to be 3.5 µg/kg.
